Test results from US9815815B2, “Non-selective kinase inhibitors” (GILEAD SCIENCES, INC., priority 2013, dated 2017).

Experiments:
[1] = tested on: PDGFBB stimulated AKT phosphorylation; experiment: In cell Western (ICW), PDGFBB stimulated AKT phosphorylation in human fetal lung fibroblasts; type: cell-based; details: comparison in words
Procedure: In cell Western (ICW). […] HLFs were maintained in subculture at no more than 6 passages in DMEM with 5% FBS and 4 mM Glutamax at 37° C., 5% CO2. HLFs were plated and grown to 70-80% confluence in 96 well plates then serum-starved for 48 hours. […] Antibodies were detected using IRDye 680LT goat anti-mouse IgG and IRDye 800W goat a-rabbit IgG conjugated antibodies. After washing, the signal was quantified using an Odyssey Infrared Imaging System (LI-COR). Phosphoprotein signal (800 nm) was normalized to total protein signal (700 nm) acquired from each well and experimental duplicates on same plate were averaged and reported.

AKT = experiment: NanoPro immunoassay pAKT/AKT in lung extracts, MCT+PN model; type: in vivo, rat
[2] = Body weight of treated subjects; type: in vivo, rat; details: treated vs. vehicle groups
[3] = Pharmacokinetic study, lung and plasma levels after inhalation or IV; type: in vivo, rat
Procedure: Pharmacokinetic studies. PK10453 (Structure 2) was administered intravenously or by inhalation to animals, which were then euthanized at time 0, 10, 20, and 60 min (n=3 each time point). Blood samples were taken by cardiac puncture, and the lungs excised. The lungs were homogenized and PK10453 (Structure 2) extracted with a 1:3 mixture of acetonitrile:methanol. Similarly, plasma was extracted with a 1:3 mixture of acetonitrile:methanol. Drug was assayed by LC MS/MS (PharmOptima Inc., Portage Mich.). First order exponential curves were fit to the data with Excel. AUC was determined with the trapezoidal method of integration.
For the pharmacokinetic study, the concentration of PK10453 (Structure 2) in lung when administered by inhalation was compared to the concentration achieved with IV administration. As described in Morén “Aerosols in medicine : principles, diagnosis, and therapy.” Amsterdam; New York: Elsevier. (1993) and Phalen et al., “Inhalation exposure methodology.” Environ Health Perspect 56:23-34 (1984)), it is possible to estimate the pharmacokinetic advantage of inhalation relative to intravenous administration, Rd, by comparing the AUC of a plot of the drug concentration as a function of time following respiratory and IV administration: Rd=[(AUClung/AUCplasma)respiratory]/[(AUClung/AUCplasma)IV]

STAT3 = experiment: NanoPro immunoassay pSTAT3/STAT3 in lung extracts, MCT+PN model; type: in vivo, rat; details: D4 and D8 groups compared to vehicle
Text: (§1) Histology and morphometric analysis. At the end of the study, the heart and lungs were removed from ventilated animals under general anesthesia. Heparinized saline was infused under pressure through the main pulmonary artery. The right upper lobe was immediately tied off and placed in liquid nitrogen for Western blot and NanoPro 100 ™ assay analysis. The heart was removed, and the RV free wall, interventricular septum and LV free wall dissected and weighed. Buffered formalin (10%) was infused under pressure both through the pulmonary artery and the trachea. Morphometric analysis was performed on H&E stained formalin fixed tissue sectioned at 8 μm. The media area and lumen area of pulmonary arterioles were measured with Image J software by a technician blinded to treatment group. Measurements were made on 20 pulmonary arterioles per section. The ratio of the lumen area to the total media area was determined This ratio normalizes the variation in total pulmonary arteriole area. […]
NanoPro Immunoassay™. Relative differences in phosphorylated ERK1/2 and STAT isoforms were measured with a NanoPro100™ immunoassay system (Protein Simple/Cell Biosciences, CA). […]

rat MCT+PN model = experiment: RV pressure, PV loops, RV hypertrophy and morphometry in the rat MCT+PN model; type: in vivo; details: for ESV: PV loop, second part of Table 3
Procedure: Measurement of PV loops. In a separate cohort of animals, the MCT+PN model was developed as described above, and PK10453 (Structure 2) was then administered for 4 or 8 min three times a day to the drug treated group. The vehicle control group underwent 4 min exposures three times a day. Pressure Volume (PV) loops were obtained with an admittance system (Scisense, Inc.) after 14 days of treatment, while rats were under general anesthesia with isoflurane and 100% FiO2. Also, or in the alternative, RV pressures were obtained in each group after 14 days of treatment. In a subset of each group, pressure Volume (PV) loops were obtained with an admittance system (high fidelity catheter FTE1918B, Scisense, Inc.) after 14 days of treatment. After induction of general anesthesia and intubation via tracheostomy, the rats were placed on a pressure controlled ventilator (TOPOVENT). General anesthesia consisted of isoflurane and 100% FiO2 with peak inspiratory pressure set at 18 cm, and PEEP 5 cm H2O. A left thoracotomy was performed with admittance catheter in the RV via the RV outflow tract.
as §1

rat MCT model = experiment: PK10453 dose response study in the rat MCT model; type: in vivo
Procedure: Efficacy study in the rat MCT model—PK10453 (Structure 2) dose response study in the rat MCT Model. Male Sprague Dawley rats received MCT 60 mg/kg IPMCT, and after 3 weeks, PK10453 (Structure 2) or vehicle control were administered by inhalation. Four groups were studied: vehicle control (4 min exposure) and three treatment groups of PK10453 (Structure 2) with exposure times 2 min (D2), 4 min (D4), or 8 min (D8) three times a day. These regimens were administered for two weeks. The vehicle consisted of aerosolized 1M tosylic acid neutralized with ammonia vapor as described above. The pH of a solution prepared by dissolving captured aerosol particles in water was measured for every dose and was consistently in the range of 5.5-6.0. At the end of the study, the RV systolic pressure was measured, and the heart chambers dissected and weighed.

PDGFRalpha = PDGFRalpha (Homo sapiens, UniProt P16234); experiment: biochemical
Sequence of PDGFRalpha (P16234 24-1089): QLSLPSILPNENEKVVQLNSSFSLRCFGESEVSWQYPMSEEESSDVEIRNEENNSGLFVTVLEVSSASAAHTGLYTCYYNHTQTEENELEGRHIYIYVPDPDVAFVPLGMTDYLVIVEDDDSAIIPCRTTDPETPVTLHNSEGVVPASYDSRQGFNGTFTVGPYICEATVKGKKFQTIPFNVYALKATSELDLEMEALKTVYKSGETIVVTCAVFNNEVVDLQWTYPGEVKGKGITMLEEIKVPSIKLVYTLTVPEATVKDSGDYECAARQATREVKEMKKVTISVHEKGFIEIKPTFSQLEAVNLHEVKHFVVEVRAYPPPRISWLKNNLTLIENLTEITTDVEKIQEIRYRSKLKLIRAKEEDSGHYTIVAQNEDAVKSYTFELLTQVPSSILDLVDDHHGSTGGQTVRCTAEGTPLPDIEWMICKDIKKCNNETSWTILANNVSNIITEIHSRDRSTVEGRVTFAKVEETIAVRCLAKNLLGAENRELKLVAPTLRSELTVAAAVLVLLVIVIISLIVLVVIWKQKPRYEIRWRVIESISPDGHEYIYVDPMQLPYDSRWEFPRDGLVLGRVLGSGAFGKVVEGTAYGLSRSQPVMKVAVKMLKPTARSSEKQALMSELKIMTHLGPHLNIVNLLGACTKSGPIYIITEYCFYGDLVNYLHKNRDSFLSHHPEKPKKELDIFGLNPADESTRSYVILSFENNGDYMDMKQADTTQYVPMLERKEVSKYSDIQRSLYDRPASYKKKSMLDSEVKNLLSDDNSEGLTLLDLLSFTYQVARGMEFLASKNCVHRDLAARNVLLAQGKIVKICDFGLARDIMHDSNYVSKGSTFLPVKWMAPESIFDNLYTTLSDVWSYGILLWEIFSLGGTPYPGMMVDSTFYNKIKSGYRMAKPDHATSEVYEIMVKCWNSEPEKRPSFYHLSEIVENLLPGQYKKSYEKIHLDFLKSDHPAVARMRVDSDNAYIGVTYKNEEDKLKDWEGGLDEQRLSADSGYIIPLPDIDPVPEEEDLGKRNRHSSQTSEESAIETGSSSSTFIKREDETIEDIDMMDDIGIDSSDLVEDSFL
Procedure: (§2) In vitro kinase assay. A Z-lyte kinase assay was performed to determine the inhibition of PDGFRalpha and PDGFRbeta mediated phosphorylation by PK10453 (Structure 2). Ten point titration curves were modeled to calculate the IC50 (Invitrogen Select Screen®).

PDGFRbeta = PDGFRbeta (Homo sapiens, UniProt P09619); experiment: biochemical
Sequence of PDGFRbeta (P09619 33-1106): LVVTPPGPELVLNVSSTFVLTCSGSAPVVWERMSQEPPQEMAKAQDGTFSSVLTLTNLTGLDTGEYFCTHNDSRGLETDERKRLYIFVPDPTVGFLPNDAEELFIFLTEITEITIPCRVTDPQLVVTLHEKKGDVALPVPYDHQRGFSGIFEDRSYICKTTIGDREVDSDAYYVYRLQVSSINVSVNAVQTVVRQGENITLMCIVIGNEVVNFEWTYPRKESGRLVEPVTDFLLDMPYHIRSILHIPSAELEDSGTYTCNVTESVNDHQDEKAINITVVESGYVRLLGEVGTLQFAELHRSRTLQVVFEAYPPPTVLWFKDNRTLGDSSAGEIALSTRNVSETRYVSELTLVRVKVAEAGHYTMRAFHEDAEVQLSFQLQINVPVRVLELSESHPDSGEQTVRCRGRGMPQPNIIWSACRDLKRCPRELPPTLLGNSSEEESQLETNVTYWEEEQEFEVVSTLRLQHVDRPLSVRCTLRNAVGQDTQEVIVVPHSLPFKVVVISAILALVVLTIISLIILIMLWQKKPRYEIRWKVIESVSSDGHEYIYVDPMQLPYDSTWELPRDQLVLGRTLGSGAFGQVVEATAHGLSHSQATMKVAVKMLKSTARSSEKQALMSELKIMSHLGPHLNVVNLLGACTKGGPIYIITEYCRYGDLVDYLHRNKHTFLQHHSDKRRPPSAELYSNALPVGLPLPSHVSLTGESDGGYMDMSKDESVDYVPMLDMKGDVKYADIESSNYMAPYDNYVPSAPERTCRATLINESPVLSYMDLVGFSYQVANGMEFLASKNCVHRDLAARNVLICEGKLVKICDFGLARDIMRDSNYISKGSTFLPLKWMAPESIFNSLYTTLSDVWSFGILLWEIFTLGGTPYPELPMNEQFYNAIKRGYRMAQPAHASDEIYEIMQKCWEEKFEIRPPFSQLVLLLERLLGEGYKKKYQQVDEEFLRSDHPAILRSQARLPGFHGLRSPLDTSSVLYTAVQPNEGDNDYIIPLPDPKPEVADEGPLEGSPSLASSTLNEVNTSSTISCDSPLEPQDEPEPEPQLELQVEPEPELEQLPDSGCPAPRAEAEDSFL
Procedure: as §2

## COc1cc(-c2cncc(N[C@@H](C)c3cccc(NC(=O)c4cncc(C)c4)c3)n2)ccc1O [PK10453, (S)-N-(3-(1-((6-(4-hydroxy-3-methoxyphenyl)pyrazin-2yl)amino)ethyl)phenyl)-5-methylnicotinamide]
[1]
  IC50 for inhibiting PDGFBB stimulated AKT phosphorylation, compared to imatinib: lower IC50 concentrations compared to imatinib
AKT; D4, D8 vs vehicle
  pAKT(Thr308)/AKT ratio in lung extracts: not significantly different
AKT; treated vs vehicle
  pAKT(Ser473)/AKT ratio in lung extracts: significant reduction
[2]
  body weight, in words: trend to a slower rate of decline in body weight
[3]; inhalation relative to IV
  Rd = [(AUClung/AUCplasma)respiratory]/[(AUClung/AUCplasma)IV]: 44.6
[3]; lung/plasma AUC ratio
  advantage of inhaled compared to IV administration: 45 fold
STAT3
  pSTAT3/STAT3 ratio: significant reduction
Rat MCT+PN model; D8: 8 min 3x/day, 14 days
  RV systolic pressure: 43.0±3.0 mm Hg
Rat MCT+PN model; D4, mean
  ESV: 408.95 µL
Rat MCT+PN model; D8, mean
  ESV: 488.68 µL
Rat MCT model; D4
  reduction in RVSP compared to the vehicle treated group: 44%
Rat MCT model; D8
  reduction in RVSP compared to the vehicle treated group: 54%
Rat MCT model; inhalation, two weeks, in words
  RV hypertrophy, ratio (RV+IVS)/LV weight: significant reduction
Rat MCT model; rat MCT model, inhalation
  decrease of RV systolic pressure: 50%
PDGFRalpha
  IC50: 0.035 µM
PDGFRbeta
  IC50: 0.0101 µM
